Measurements from US9518041B2, “(+)-5-(3,4-difluorophenyl)-5-[(3-methyl-2-oxopyridin-1(2H)-yl)methyl]imidazolidine-2,4-dione and drug containing same” (KAKEN PHARMACEUTICAL CO., LTD., priority 2013, dated 2016).
≈ marks a conversion by molar mass, not a printed value.

Assay: Solubility test in the 2nd fluid for the disintegration test of the Japanese Pharmacopoeia
Type: physicochemical
Details: pH 6.8, aqueous buffer, thermodynamic from solid; pH6.8, shaken for 2 hours
Description: Test substances (10.0 mg) were correctly weighed, and methanol was added to adjust to 10 mL. The solution was diluted by 10 times to prepare a solution of […].
In a centrifuge tube 5.0 mg of the test substance was weighed, added with 5.0 mL of the 2nd fluid for the disintegration test of the Japanese pharmacopoeia, supersonified for 3 minutes, and shaken for 2 hours thereafter. This solution was filitered with a membrane filter (0.2 μm), 500 μL the filtrate was measured, 500 μL of acetonitrile was added, and fully stirred to obtain the sample solution.
To 250 mL of 0.2 mol/L potassium dihydrogenphosphate aqueous solution, 118 mL of 0.2 mol/L sodium hydroxide aqueous solution and water was added to adjust to 1000 mL.
Using a high performance liquid chromatography, each of the sample solution for a calibration curve and sample solution for solubility measurement is measured twice to calculate an average area for each.
Based on the average area obtained in the above mentioned method, using an equation below to calculate a solubility. Solubility in the 2nd fluid for the disintegration test of the Japanese pharmacopoeia(μg/mL)=((P×2)/S)×100
S: Average area on the sample solution for a calibration curve
P: Average area on the sample solution for solubility measurement

Question: Which solubility at 2 h does the source give for Cc1cccn(CC2(c3ccc(F)c(F)c3)NC(=O)NC2=O)c1=O (single isomer, unassigned; (+)) [(+)-5-(3,4-difluorophenyl)-5-[(3-methyl-2-oxopyridin-1(2H)-yl)methyl]imidazolidine-2,4-dione] here?
Answer: 430 µg/mL (≈ 1290 µM)
